Measurements reported in US5567692A, “9-[(substituted glycyl) amido)]-6-demethyl-6-deoxytetracyclines” (priority 1995, dated 1996).
Where a name gives a salt, the structure may show the parent alone.

Experiments:
[1] = system: E. coli UBMS 88-1 Tet B; assay: microbe, parasite or virus in culture; assay type: cell-based; conditions: E. coli UBMS 88-1 Tet B
[2] = system: E. coli MC 4100 TNIOC Tet B; assay: microbe, parasite or virus in culture; assay type: cell-based; conditions: E. coli MC 4100 TNIOC Tet B
[3] = system: E. coli J3272 Tet C; assay: microbe, parasite or virus in culture; assay type: cell-based; conditions: dihydrochloride
[4] = system: S. marcescens FPOR 8733; assay: MIC, agar dilution; assay type: cell-based; conditions: dihydrochloride
[5] = system: S. aureus UBMS 88-4; assay: MIC, agar dilution; assay type: cell-based; conditions: Staphylococcus aureus, UBMS884, 18 h
[6] = system: S. aureus UBMS 88-5 Tet M; assay: microbe, parasite or virus in culture; assay type: cell-based; conditions: Staphylococcus aureus, UBMS885TETM, 18 h
[7] = system: S. aureus UBMS 88-7 Tet K; assay: microbe, parasite or virus in culture; assay type: cell-based; conditions: dihydrochloride
[8] = system: S. aureus UBMS 90-1 Tet M; assay: microbe, parasite or virus in culture; assay type: cell-based; conditions: S. aureus UBMS 90-1 Tet M; dihydrochloride
[9] = system: S. aureus UBMS 90-3; assay: MIC, agar dilution; assay type: cell-based; conditions: Staphylococcus aureus, UBMS903, 18 h
[10] = system: S. aureus UBMS 90-2 Tet M; assay: microbe, parasite or virus in culture; assay type: cell-based; conditions: S. aureus UBMS 90-2 Tet M; dihydrochloride
[11] = system: S. aureus IVES 2943; assay: MIC, agar dilution; assay type: cell-based; conditions: S. aureus IVES 2943; dihydrochloride
[12] = system: S. aureus ROSE (MP); assay: MIC, agar dilution; assay type: cell-based; conditions: Staphylococcus aureus, 18 h, read-out: MIC
[13] = system: S. aureus SMITH (MP); assay: MIC, agar dilution; assay type: cell-based; conditions: Staphylococcus aureus, 18 h; S. aureus SMITH (MP); read-out: MIC
[14] = system: S. aureus IVES 1983; assay: MIC, agar dilution; assay type: cell-based; conditions: S. aureus IVES 1983; dihydrochloride
[15] = system: S. aureus ATCC 29213; assay: MIC, agar dilution; assay type: cell-based; conditions: S. aureus ATCC 29213; dihydrochloride
[16] = system: Enterococcus 12201; assay: MIC, agar dilution; assay type: cell-based; conditions: Enterococcus 12201
[17] = system: Staphylococcus aureus, (methicillin-resistant); assay: MIC range, recent clinical and veterinary isolates; assay type: cell-based; conditions: 18 h, [15] isolates
[18] = system: Staphylococcus aureus, (methicillin-susceptible); assay: MIC range, recent clinical and veterinary isolates; assay type: cell-based; conditions: Staphylococcus aureus, 18 h, read-out: MIC Range
[19] = system: Staphylococcus Coagulase-negative, (methicillin-susceptible); assay: MIC range, recent clinical and veterinary isolates; assay type: cell-based; conditions: 18 h, [14] isolates
[20] = system: Enterococcus faecalis; assay: MIC range, recent clinical and veterinary isolates; assay type: cell-based; conditions: 18 h, read-out: MIC Range
[21] = system: Enterococcus faecium; assay: MIC range, recent clinical and veterinary isolates; assay type: cell-based; conditions: 18 h, read-out: MIC Range
[22] = system: Escherichia coli; assay: MIC range, recent clinical and veterinary isolates; assay type: cell-based; conditions: 18 h, read-out: MIC Range
[23] = system: Shigella spp.; assay: MIC range, recent clinical and veterinary isolates; assay type: cell-based; conditions: 18 h, [14] isolates
[24] = system: Klebsiella pneumoniae; assay: MIC range, recent clinical and veterinary isolates; assay type: cell-based; conditions: 18 h, [10] isolates
[25] = system: Citrobacter freundii; assay: MIC range, recent clinical and veterinary isolates; assay type: cell-based; conditions: 18 h, [10] isolates, read-out: MIC Range
[26] = system: Citrobacter diversus; assay: MIC range, recent clinical and veterinary isolates; assay type: cell-based; conditions: Citrobacter koseri, 18 h; Citrobacter diversus, [10] isolates; read-out: MIC Range
[27] = system: Serratia marcescens; assay: MIC range, recent clinical and veterinary isolates; assay type: cell-based; conditions: 18 h, [10] isolates, read-out: MIC Range
[28] = system: Enterobacter cloacae; assay: MIC range, recent clinical and veterinary isolates; assay type: cell-based; conditions: 18 h, [10] isolates, read-out: MIC Range
[29] = system: Enterobacter aerogenes; assay: MIC range, recent clinical and veterinary isolates; assay type: cell-based; conditions: Klebsiella aerogenes, 18 h; Enterobacter aerogenes, [10] isolates; read-out: MIC Range
[30] = system: Providencia spp.; assay: MIC range, recent clinical and veterinary isolates; assay type: cell-based; conditions: 18 h, read-out: MIC Range
[31] = system: Pseudomonas aeruginosa; assay: MIC range, recent clinical and veterinary isolates; assay type: cell-based; conditions: 18 h, [10] isolates, read-out: MIC Range
[32] = system: Moraxella catarrhalis; assay: MIC range, recent clinical and veterinary isolates; assay type: cell-based; conditions: 18 h, [18] isolates, read-out: MIC Range
[33] = system: Pasturella multocida (Veterinary); assay: MIC range, recent clinical and veterinary isolates; assay type: cell-based; conditions: 18 h, [17] isolates
[34] = system: Bordetella bronchiseptica (Veterinary); assay: MIC range, recent clinical and veterinary isolates; assay type: cell-based; conditions: 18 h; Bordetella bronchiseptica (Veterinary), [10] isolates; read-out: MIC Range
[35] = system: Bacteroides fragilis group; assay: MIC range, recent clinical and veterinary isolates; assay type: cell-based; conditions: Bacteroides fragilis, 18 h, read-out: MIC Range
[36] = system: Clostridium spp.; assay: MIC range, recent clinical and veterinary isolates; assay type: cell-based; conditions: 18 h, [9] isolates
[37] = system: Anaerobic Gram(+)Cocci; assay: MIC range, recent clinical and veterinary isolates; assay type: cell-based; conditions: 18 h; Anaerobic Gram(+)Cocci, [15] isolates; read-out: MIC Range
[38] = system: the ribosome; assay: Reversibility of binding: bacterial growth after washing of the organism; assay type: cell-based; conditions: bacterial growth resumes when the compound is removed by washing
Text: Therefore, the ability of 9-[(N,N-dimethylglycyl)amido]-6-demethyl-6-deoxytetracycline to inhibit bacterial growth appears to be a direct consequence of its ability to inhibit protein synthesis at the ribosome level.

[39] = system: tetracycline sensitive and resistant Gram-positive and Gram-negative bacteria; assay: In vitro antibacterial evaluation, summary in words; assay type: cell-based; conditions: summary of Tables I, II and V, dihydrochloride
[40] = system: Escherichia coli UBMS 90-4 (Tet M); assay: Acute lethal infection in mice, E. coli UBMS 90-4; conditions: in Mus musculus, iv, 168 h

SMILES: CN(C)CC(=O)Nc1ccc2c(c1O)C(=O)C1=C(O)[C@]3(O)C(=O)C(C(N)=O)=C(O)[C@@H](N(C)C)C3CC1C2 (stereo partly drawn) [CC, [4S-(4alpha,12aalpha)]-4-(Dimethylamino)-9-[[(dimethylamino)acetyl]amino]-1,4,4a,5,5a,6,11,12a-octahydro-3,10,12,12a-tetrahydroxy-1,11-dioxo-2-naphthacenecarboxamide dihydrochloride]
- MIC [1]: 0.25 µg/mL
- MIC [2]: 0.25 µg/mL
- MIC [3]: 0.25 µg/mL
- MIC [4]: 2 µg/mL
- MIC [5]: 0.03 µg/mL
- MIC [6]: 0.03 µg/mL
- MIC [7]: 0.5 µg/mL
- MIC [8]: 0.06 µg/mL
- MIC [9]: 0.03 µg/mL
- MIC [10]: 0.06 µg/mL
- MIC [11]: 0.5 µg/mL
- MIC [12]: 1 µg/mL
- MIC [13]: 0.03 µg/mL
- MIC [14]: 0.5 µg/mL
- MIC [15]: < 0.015 µg/mL
- MIC [16]: 0.03 µg/mL
- MIC [17]: 0.12 to 4 µg/mL
- MIC [18]: 0.06 to 0.25 µg/mL
- MIC [19]: 0.06 to 4 µg/mL
- MIC [20]: 0.03 to 0.25 µg/mL
- MIC [21]: 0.06 to 0.5 µg/mL
- MIC [22]: 0.25 to 4 µg/mL
- MIC [23]: 0.12 to 0.5 µg/mL
- MIC [24]: 0.25 to 4 µg/mL
- MIC [25]: 0.5 to 8 µg/mL
- MIC [26]: 0.25 to 1 µg/mL
- MIC [27]: 2 to 8 µg/mL
- MIC [28]: 0.5 to 1 µg/mL
- MIC [29]: 0.25 to 1 µg/mL
- MIC [30]: 1 to 8 µg/mL
- MIC [31]: 2 to 16 µg/mL
- MIC [32]: 0.06 to 0.12 µg/mL
- MIC [33]: 0.03 to 0.25 µg/mL
- MIC [34]: 0.06 to 0.12 µg/mL
- MIC [35]: 0.12 to 2 µg/mL
- MIC [36]: 0.03 to 0.12 µg/mL
- MIC [37]: 0.015 to 0.12 µg/mL
- binding to its target (the ribosome), reversibility [38]: binds reversibly
- in vitro antibacterial activity (in words) [39]: excellent in vitro activity
- in vitro antibacterial activity (in words) ([39]; listed as 9-[(N,N-dimethylglycyl)amido)]-6-demethyl-6-deoxytetracycline): potent in vitro antibacterial activity
- ED50 [40]: 1.6 mg/kg
